Laboratory results as given in patent US20190105337A1, “METHODS OF TREATING BACTERIAL INFECTIONS” (priority 2015, published 2019).
Where two headings read alike, the source gives them in different places.

Experiments:
clinical [1] = conditions: human, in vivo
Protocol: The combination of both drugs was administered on day 7. All drugs were infused over 3 hours. Plasma and urine samples were obtained and assayed using validated HPLC/MS methods.

clinical [2] = conditions: both, human, in vivo
Protocol: (§1) A total of twenty-five (n=25) male and female subjects who met the study entry criteria and completed all phases of the pharmacokinetic study were included in this pharmacokinetic analysis. […] Blood samples were collected to measure drug concentrations in plasma prior to (time 0), and at 1.5, 2.95, 3.083, 3.25, 3.5, 4, 6, and 8 hours after the start of a 3-hour intravenous infusion of the third combination dose.
Urea has been commonly used as an endogenous marker to estimate the apparent volume of ELF. Blood samples to determine plasma urea concentrations were obtained just prior to scheduled bronchoscopy. Aliquots of BAL were obtained to determine urea concentrations in BAL and cell count with differential. The standardized bronchoscopy with BAL procedure for the collection of intrapulmonary samples has been previously described in the references listed below.
(§2) (Reports MC14B-0013, MC14B-0015, MC14I-011, and MC14I-0012). The urea concentrations in plasma and BAL were performed with a microplate-based method with an 0-phthalaldehyde chromogenic solution at MicroConstants, Inc., San Diego, Calif.
The calculations of ELF volume and drug concentrations in ELF and AM were performed with BAL supernatant and pulmonary (alveolar) cells (“cell pellet”) from aspirates recovered from the 2nd, 3rd, and 4th instillations (BAL2). The concentration of drug (ABXELF) in the epithelial lining fluid (ELF) was determined as follows:
[…]
VELF is derived from the following:
where UreaBAL is the concentration of urea in BAL fluid and UreaP is the concentration of urea in plasma.
The concentration of drug (ABXAM) in the alveolar cells (AC) was determined as follows:
Differential cell count was performed to determine the number of macrophages present. A mean macrophage cell volume of 2.42 μl/106 cells was used in the calculations for volume of alveolar cells in the pellet suspension.
The concentration ratios of ELF and AM to the simultaneous plasma concentrations were calculated for each subject and summarized for each group at each sampling time. […] The 8-hour sampling time was also used as a value at time zero for determining the area term of plasma, ELF, and AM. The AUC0-8 for each matrix was determined with the linear trapezoidal method. The ratio of AUC0-8 of ELF to plasma and AM to plasma were calculated.

Plasma protein binding = format: in vitro ADME
clinical [3] = conditions: human, in vivo; remark: listed apart in the source
Protocol: All infusions were administered over 3 hours. Intensive plasma and urine PK sampling was obtained after dosing and assayed using validated HPLC/MS methods.

[4] = Example 6: noncompartmental plasma pharmacokinetics after third dose of the Combination (2 g meropenem/2 g Compound I q8h); conditions: for AUC(0-t) / clearance / Cmax / Tmax / half-life: both, human, plasma, intravenous; for AUC(0-t): AUC0-8, meropenem 2 g q8h; for clearance: CL; for clearance / Cmax / Tmax / Vss: meropenem 2 g q8h; for half-life: t1/2, meropenem 2 g q8h
Protocol: as §1, §2
Peak plasma concentration (Cmax) and time to Cmax (Tmax) were read from the observed plasma concentration-time profile after the start of the intravenous infusion of the third Combination dose. Area under the plasma concentration-time curve over 8 hours (AUC0-8) after the third dose was calculated with the linear-log trapezoidal rule (WinNonlin®, version 6.3, Pharsight Corporation, Cary, N.C.). The elimination rate constant (β) was determined by nonlinear least-squares regression. Elimination half-life (t½) was calculated by dividing β into the natural logarithm of two.

[5] = Ratio of ELF to total Plasma concentration

In the case of C[C@@H](O)[C@H]1C(=O)N2C(C(=O)O)=C(S[C@@H]3CN[C@H](C(=O)N(C)C)C3)[C@H](C)[C@H]12 [meropenem, Meropenem], the “AUC(0-∞)” value (clinical [1]) is reported as 130.34 µg·h/mL, the Cmax (clinical [1]) is reported as 42540 ng/mL and the half-life (clinical [1]; Half-Life) is reported as 0.98 h. For the same molecule, the clearance (clinical [1]; Plasma Clearance) was 334 mL/min, the Vd (clinical [1]; Vss) was 25.9 L and the AUC(0-t) (clinical [2]; AUC0-8 based on mean ELF concentrations) was 112 µg·h/mL. For the same molecule, the AUC(0-t) (clinical [2]; AUC0-8 based on median ELF concentrations) was 102 µg·h/mL, the concentration at 1.5 h (clinical [2]; Concentration in ELF) was 21400 ± 4000 ng/mL and the concentration at 3.25 h (clinical [2]; Concentration in ELF) was 28300 ± 6700 ng/mL. For the same molecule, the concentration at 4 h (clinical [2]; Concentration in ELF) was 16100 ± 4800 ng/mL, the concentration at 6 h (clinical [2]; Concentration in ELF) was 7520 ± 5290 ng/mL and the concentration at 8 h (clinical [2]; Concentration in ELF) was 2510 ± 1130 ng/mL. The concentration at 1.5 h (clinical [2]; Concentration in Plasma) was 41200 ± 5000 ng/mL, the concentration at 3.25 h (clinical [2]; Concentration in Plasma) was 47700 ± 7300 ng/mL and the concentration at 4 h (clinical [2]; Concentration in Plasma) was 23800 ± 4300 ng/mL. For the same molecule, the concentration at 6 h (clinical [2]; Concentration in Plasma) was 7240 ± 2790 ng/mL, the concentration at 8 h (clinical [2]; Concentration in Plasma) was 1360 ± 510 ng/mL and the Kp at 1.5 h (clinical [2]; [5]) was 0.525 ± 0.107. For the same molecule, the Kp at 3.25 h (clinical [2]; [5]) was 0.59 ± 0.079, the Kp at 4 h (clinical [2]; [5]) was 0.705 ± 0.302 and the Kp at 6 h (clinical [2]; [5]) was 1.04 ± 0.475. It also gave a Kp at 8 h (clinical [2]; [5]) of 2.13 ± 1.37, a Kp (clinical [2]; intrapulmonary penetration based on AUC0-8 of ELF and total plasma concentrations) of roughly 0.63 and a Kp (clinical [2]; intrapulmonary penetration, unbound plasma concentrations) of 0.65. For the same molecule, the Kp (clinical [2]; mean ratios of ELF to simultaneous plasma concentrations (range)) was 0.525 to 2.13, the Kp (clinical [2]; ratio of ELF to total plasma concentrations based on mean AUC0-8) was 0.63 and the Kp (clinical [2]; ratio of ELF to total plasma concentrations based on median AUC0-8) was 0.58. The Kp (clinical [2]; ratio of ELF to unbound plasma concentrations based on mean AUC0-8) was 0.65, the Kp (clinical [2]; ratio of ELF to unbound plasma concentrations based on median AUC0-8) was 0.59 and the fraction unbound (Plasma protein binding) was 0.94. The fraction unbound (Plasma protein binding; human) was 0.98, the “AUC(0-∞)” value (clinical [3]) was 130.34 µg·h/mL and the Cmax (clinical [3]) was 42540 ng/mL. It also gave a half-life (clinical [3]; Half-Life) of 0.98 h, a clearance (clinical [3]; Plasma Clearance) of 334 mL/min and a Vd (clinical [3]; Vss) of 25.9 L. The AUC(0-t) ([4]; 1.5-hour BAL Sampling Group) was 168 ± 41.7 µg·h/mL, the AUC(0-t) ([4]; 3.25-hour BAL Sampling Group) was 184 ± 29.7 µg·h/mL and the AUC(0-t) ([4]; 4-hour BAL Sampling Group) was 196 ± 33.5 µg·h/mL. The AUC(0-t) ([4]; 6-hour BAL Sampling Group) was 197 ± 38.7 µg·h/mL, the AUC(0-t) ([4]; 8-hour BAL Sampling Group) was 182 ± 28.7 µg·h/mL and the AUC(0-t) ([4]; All Subjects) was 186 ± 33.6 µg·h/mL. For the same molecule, the clearance ([4]; 1.5-hour BAL Sampling Group) was 208 mL/min, the clearance ([4]; 3.25-hour BAL Sampling Group) was 185 mL/min and the clearance ([4]; 4-hour BAL Sampling Group) was 175 mL/min. It also gave a clearance ([4]; 6-hour BAL Sampling Group) of 173 mL/min, a clearance ([4]; 8-hour BAL Sampling Group) of 187 mL/min and a clearance ([4]; All Subjects) of 185 mL/min. It also gave a Cmax ([4]; 1.5-hour BAL Sampling Group) of 56900 ± 19300 ng/mL, a Cmax ([4]; 3.25-hour BAL Sampling Group) of 57900 ± 7500 ng/mL and a Cmax ([4]; 4-hour BAL Sampling Group) of 59600 ± 7400 ng/mL. The Cmax ([4]; 6-hour BAL Sampling Group) was 59400 ± 11500 ng/mL, the Cmax ([4]; 8-hour BAL Sampling Group) was 57300 ± 9000 ng/mL and the Cmax ([4]; All Subjects) was 58200 ± 10800 ng/mL. For the same molecule, the Tmax ([4]; 1.5-hour BAL Sampling Group) was 2.95 ± 0.01 h, the Tmax ([4]; 3.25-hour BAL Sampling Group) was 3 ± 0.07 h and the Tmax ([4]; 4-hour BAL Sampling Group) was 2.98 ± 0.06 h. The Tmax ([4]; 6-hour BAL Sampling Group) was 2.98 ± 0.06 h, the Tmax ([4]; 8-hour BAL Sampling Group) was 2.98 ± 0.06 h and the Tmax ([4]; All Subjects) was 2.98 ± 0.06 h. The half-life ([4]; 1.5-hour BAL Sampling Group) was 0.98 ± 0.05 h, the half-life ([4]; 3.25-hour BAL Sampling Group) was 1.04 ± 0.13 h and the half-life ([4]; 4-hour BAL Sampling Group) was 1.07 ± 0.15 h. For the same molecule, the half-life ([4]; 6-hour BAL Sampling Group) was 1.12 ± 0.24 h, the half-life ([4]; 8-hour BAL Sampling Group) was 0.96 ± 0.13 h and the half-life ([4]; All Subjects) was 1.03 ± 0.15 h. The Vss ([4]; 1.5-hour BAL Sampling Group) was 17.5 ± 2.5 L, the Vss ([4]; 3.25-hour BAL Sampling Group) was 16.7 ± 2.6 L and the Vss ([4]; 4-hour BAL Sampling Group) was 15.3 ± 2.1 L. For the same molecule, the Vss ([4]; 6-hour BAL Sampling Group) was 16.1 ± 3.4 L, the Vss ([4]; 8-hour BAL Sampling Group) was 15.6 ± 2.8 L and the Vss ([4]; All Subjects) was 16.3 ± 2.6 L.
